Results taken from patent US9969747B2 (Constellation Pharmaceuticals, Inc., priority 2014, dated 2018).
Several values for one entry are separate records, joined by “and”; a condition that tells them apart may be missing. Equal entries are not always repeated. Where two headings read alike, the source gives them in different places.

Columns and labels:
[1] = Oral pharmacokinetics in male Sprague Dawley rats, suspension in 0.5% Methylcellulose; type: in vivo; conditions: for Plasma concentration, PO1: group value
[2] = Oral pharmacokinetics in male beagle dogs, crossover, suspension in 0.5% MC; type: in vivo; conditions: for Inter-individual variability: 2 mg/Kg oral, crossover
Description: The objective was to compare the pharmacokinetic profiles of both forms in dogs using a crossover study design in which the same dogs were dosed sequentially with amorphous and monohydrate crystalline Form A with a washout period in between.

[3] = Solubility and form stability in deionized water; type: physicochemical
[4] = Gravimetric moisture sorption; type: physicochemical; conditions: over a relative humidity range of 5 to 95%
Excerpt: This level of stability is rare for many pharmaceutical compounds, and particularly for hydrated forms since most are typically stable only at lower threshold values. Typically, one would expect to see stability of a monohydrate stoichiometry over a more limited range, e.g., between 30 to 70%. At relative humidity levels below 30% a compound would still retain water, but the stoichiometric ratio would be less than that of a true monohydrate. Likewise, at high relative humidity, the stoichiometric ratio of water to compound would exceed that of a monohydrate.

[5] = 60 mg/Kg single oral dose, 1 h, 60 mg/kg
[6] = 60 mg/Kg single oral dose, 1 h, 60 mg/kg, in ng/mL
[7] = 60 mg/Kg single oral dose, 2 h, 60 mg/kg
[8] = 60 mg/Kg single oral dose, 2 h, 60 mg/kg, in ng/mL
[9] = 60 mg/Kg single oral dose, 4 h, 60 mg/kg
[10] = 60 mg/Kg single oral dose, 8 h, 60 mg/kg
[11] = 60 mg/Kg single oral dose, 24 h, 60 mg/kg
[12] = male beagle dog, 2 mg/Kg single oral dose, 0.25 h, 2 mg/kg
[13] = male beagle dog, 2 mg/Kg single oral dose, 0.5 h, 2 mg/kg
[14] = male beagle dog, 2 mg/Kg single oral dose, 1 h, 2 mg/kg
[15] = male beagle dog, 2 mg/Kg single oral dose, 2 h, 2 mg/kg
[16] = male beagle dog, 2 mg/Kg single oral dose, 4 h, 2 mg/kg
[17] = male beagle dog, 2 mg/Kg single oral dose, 6 h, 2 mg/kg
[18] = male beagle dog, 2 mg/Kg single oral dose, 8 h, 2 mg/kg
[19] = male beagle dog, 2 mg/Kg single oral dose, 12 h, 2 mg/kg
[20] = male beagle dog, 2 mg/Kg single oral dose, 24 h, 2 mg/kg
[21] = male beagle dog, 2 mg/Kg single oral dose, 2 mg/kg
[22] = 60 mg/Kg single oral dose, 60 mg/kg

Cc1noc2c1-c1ccccc1C(c1ccc(Cl)cc1)=N[C@H]2CC(N)=O [amorphous form, 2-((4S)-6-(4-chlorophenyl)-1-methyl-4H-benzo[c]isoxazolo[4,5-e]azepin-4-yl)acetamide]
Plasma concentration, individual rats [1, 5]: 8650 ng/mL | Plasma concentration, Mean [1, 6]: 11700 | Plasma concentration, individual rats [1, 6]: 12700 and 13800 | Plasma concentration, individual rats [1, 7]: 8830 ng/mL | Plasma concentration, Mean [1, 8]: 11900 | Plasma concentration, individual rats [1, 8]: 14900 and 12100 | Plasma concentration, Mean [1, 9]: 9860 ng/mL | Plasma concentration, individual rats [1, 9]: 8410 ng/mL and 9370 ng/mL | Plasma concentration, individual rats ([1]; 60 mg/Kg single oral dose, 4 h, 60 mg/kg, in ng/mL): 11800 | Plasma concentration, Mean [1, 10]: 6440 ng/mL | Plasma concentration, individual rats [1, 10]: 6550 ng/mL and 6450 ng/mL and 6310 ng/mL | Plasma concentration, Mean ([1]; 60 mg/Kg single oral dose, 24 h): BQL | Plasma concentration, individual rats [1, 11]: BQL | Cmax ([1]; male, Sprague Dawley, rat, plasma, po, 60 mg/kg, 60 mg/Kg single oral dose, read-out: Cmax): 11900 ng/mL | Tmax ([1]; rat, plasma, 60 mg/Kg single oral dose, read-out: Tmax): 2 h | Inter-individual variability ([2]; male beagle dog): low inter-individual variability | Plasma concentration, Mean [2, 12]: 188 ng/mL | Plasma concentration, Mean [2, 13]: 471 ng/mL | Plasma concentration, Mean [2, 14]: 658 ng/mL | Plasma concentration, Mean [2, 15]: 577 ng/mL | Plasma concentration, Mean [2, 16]: 528 ng/mL | Plasma concentration, Mean [2, 17]: 289 ng/mL | Plasma concentration, Mean [2, 18]: 232 ng/mL | Plasma concentration, Mean [2, 19]: 153 ng/mL | Plasma concentration, Mean [2, 20]: 64 ng/mL | AUC0-inf, individual dogs [2, 21]: 5120 ng·h/mL and 7510 ng·h/mL and 6550 ng·h/mL and 4950 ng·h/mL and 7070 ng·h/mL | AUC0-last, individual dogs [2, 21]: 4560 ng·h/mL and 6220 ng·h/mL and 5540 ng·h/mL and 4610 ng·h/mL and 6060 ng·h/mL | Cmax, individual dogs [2, 21]: 646 ng/mL and 681 ng/mL and 672 ng/mL and 705 ng/mL and 706 ng/mL | MRT0-last, individual dogs [2, 21]: 7.73 h (2×) and 6.48 h and 7.69 h | T1/2, individual dogs [2, 21]: 7.86 h and 10.17 h and 9.21 h and 6.82 h and 9.17 h | Tmax, individual dogs [2, 21]: 1.00 h (5×) and 4.00 h | Tmax ([2]; male, beagle, dog, plasma, po, 2 mg/kg, 2 mg/Kg single oral dose): 1.5 h | AUC(0-inf) ([2]; male, beagle, dog, plasma, po, 2 mg/kg, 2 mg/Kg single oral dose, read-out: AUC0-inf, Mean): 6220 ng·h/mL | AUC(0-inf) ([2]; male, beagle, dog, plasma, po, 2 mg/kg, 2 mg/Kg single oral dose, read-out: AUC0-inf, individual dogs): 6110 ng·h/mL | AUC(0-t) ([2]; male, beagle, dog, plasma, po, 2 mg/kg, 2 mg/Kg single oral dose, read-out: AUC0-last, Mean): 5390 ng·h/mL | AUC(0-t) ([2]; male, beagle, dog, plasma, po, 2 mg/kg, 2 mg/Kg single oral dose, read-out: AUC0-last, individual dogs): 5370 ng·h/mL | Cmax ([2]; male, beagle, dog, plasma, po, 2 mg/kg, 2 mg/Kg single oral dose, read-out: Cmax, Mean): 670 ng/mL | Cmax ([2]; male, beagle, dog, plasma, po, 2 mg/kg, 2 mg/Kg single oral dose, read-out: Cmax, individual dogs): 609 ng/mL | MRT inf ([2]; male, beagle, dog, plasma, po, 2 mg/kg, 2 mg/Kg single oral dose, read-out: MRT0-inf, Mean): 11.2 h | MRT inf ([2]; male, beagle, dog, plasma, po, 2 mg/kg, 2 mg/Kg single oral dose, read-out: MRT0-inf, individual dogs): 11 h | MRT last ([2]; male, beagle, dog, plasma, po, 2 mg/kg, 2 mg/Kg single oral dose, read-out: MRT0-last, Mean): 7.45 h | MRT last ([2]; male, beagle, dog, plasma, po, 2 mg/kg, 2 mg/Kg single oral dose, read-out: MRT0-last, individual dogs): 7.59 h | half-life ([2]; male, beagle, dog, plasma, po, 2 mg/kg, 2 mg/Kg single oral dose, read-out: T1/2, Mean (converted)): 8.59 h | half-life ([2]; male, beagle, dog, plasma, po, 2 mg/kg, 2 mg/Kg single oral dose, read-out: T1/2, individual dogs (converted)): 8.31 h | Form change upon slurry in deionized water ([3]; slurry in deionized water for 24 hr at ambient temperature): conversion to monohydrate Form A was observed

Cc1noc2c1-c1ccccc1C(c1ccc(Cl)cc1)=N[C@H]2CC(N)=O [monohydrate Form A, 2-((4S)-6-(4-chlorophenyl)-1-methyl-4H-benzo[c]isoxazolo[4,5-e]azepin-4-yl)acetamide]
Plasma concentration, individual rats ([1]; 10 mg/Kg single oral dose, 299 s, 10 mg/kg): 51.3 ng/mL and 182 ng/mL and 89.2 ng/mL and 191 ng/mL and 166 ng/mL and 31.5 ng/mL | Plasma concentration, individual rats ([1]; 10 mg/Kg single oral dose, 1.00 h, 10 mg/kg): 1940 ng/mL and 1620 ng/mL and 1510 ng/mL and 2300 ng/mL and 1790 ng/mL and 1600 ng/mL | Plasma concentration, PO1 ([1]; 10 mg/Kg single oral dose, 1.00 h): 1790 ng/mL | Plasma concentration, individual rats ([1]; 10 mg/Kg single oral dose, 2.00 h, 10 mg/kg): 1400 ng/mL and 1320 ng/mL and 1420 ng/mL and 1650 ng/mL and 950 ng/mL and 1000 ng/mL | Plasma concentration, PO1 ([1]; 10 mg/Kg single oral dose, 2.00 h): 1290 ng/mL | Plasma concentration, individual rats ([1]; 10 mg/Kg single oral dose, 4.00 h, 10 mg/kg): 611 ng/mL and 349 ng/mL and 569 ng/mL and 544 ng/mL and 166 ng/mL and 255 ng/mL | Plasma concentration, PO1 ([1]; 10 mg/Kg single oral dose, 4.00 h): 416 ng/mL | Plasma concentration, individual rats ([1]; 10 mg/Kg single oral dose, 8.00 h, 10 mg/kg): 56.3 ng/mL and 18.1 ng/mL and 32.4 ng/mL and 13.6 ng/mL and 2.93 ng/mL and 18.2 ng/mL | Plasma concentration, PO1 ([1]; 10 mg/Kg single oral dose, 8.00 h): 23.6 ng/mL | Tmax ([1]; 60 mg/Kg single oral dose): 2.0 h | AUC0-last [1, 22]: 52800 ng·h/mL | Cmax [1, 22]: 7197 ng/mL | Plasma concentration, Mean ([1]; 60 mg/Kg single oral dose, 299 s): 304 ng/mL | Plasma concentration, individual rats ([1]; 60 mg/Kg single oral dose, 299 s, 60 mg/kg): 183 ng/mL and 407 ng/mL and 512 ng/mL and 158 ng/mL and 391 ng/mL and 172 ng/mL | Plasma concentration, Mean ([1]; 60 mg/Kg single oral dose, 0.250 h): 2150 ng/mL | Plasma concentration, individual rats ([1]; 60 mg/Kg single oral dose, 0.250 h, 60 mg/kg): 1830 ng/mL and 2770 ng/mL and 2670 ng/mL and 2150 ng/mL and 2050 ng/mL and 1420 ng/mL | Plasma concentration, Mean ([1]; 60 mg/Kg single oral dose, 0.500 h): 4060 ng/mL | Plasma concentration, individual rats ([1]; 60 mg/Kg single oral dose, 0.500 h, 60 mg/kg): 3610 ng/mL and 5250 ng/mL and 3790 ng/mL and 4120 ng/mL and 4050 ng/mL and 3550 ng/mL | Plasma concentration, Mean [1, 5]: 5530 ng/mL | Plasma concentration, individual rats [1, 5]: 5290 ng/mL and 6110 ng/mL and 6840 ng/mL and 5440 ng/mL and 4740 ng/mL and 4770 ng/mL | Plasma concentration, Mean [1, 7]: 7200 ng/mL | Plasma concentration, individual rats [1, 7]: 8220 ng/mL and 7490 ng/mL and 6700 ng/mL and 8330 ng/mL and 6850 ng/mL and 5590 ng/mL | Plasma concentration, Mean [1, 9]: 6070 ng/mL | Plasma concentration, individual rats [1, 9]: 7740 ng/mL and 4850 ng/mL and 5160 ng/mL and 8350 ng/mL and 5690 ng/mL and 4650 ng/mL | Plasma concentration, Mean [1, 10]: 1760 ng/mL | Plasma concentration, individual rats [1, 10]: 3050 ng/mL and 805 ng/mL and 1220 ng/mL and 1960 ng/mL and 2320 ng/mL and 1200 ng/mL | Plasma concentration, individual rats [1, 11]: BQL (5×) and 1.04 | AUC(0-t) ([1]; male, Sprague Dawley, rat, plasma, po, 10 mg/kg, 10 mg/Kg single oral dose): 5500 ng·h/mL | Cmax ([1]; male, Sprague Dawley, rat, plasma, po, 10 mg/kg, 10 mg/Kg single oral dose, read-out: Cmax): 1790 ng/mL | Inter-individual differences ([1]; oral, 10 and 60 mg/Kg): Low inter-individual differences | Dose proportionality of Cmax and AUC ([1]; oral, dose increases from 10 to 60 mg/Kg): increase slightly more than proportionally with the dose | Tmax ([1]; rat, plasma, 10 mg/Kg single oral dose, read-out: Tmax): 1 h | Inter-individual variability ([2]; male beagle dog): low inter-individual variability | Tmax, Mean ([2]; male beagle dog, 2 mg/Kg single oral dose): 1.50 h | Plasma concentration, Mean [2, 12]: 100 ng/mL | Plasma concentration, Mean [2, 13]: 330 ng/mL | Plasma concentration, Mean [2, 14]: 522 ng/mL | Plasma concentration, Mean [2, 15]: 512 ng/mL | Plasma concentration, Mean [2, 16]: 435 ng/mL | Plasma concentration, Mean [2, 17]: 278 ng/mL | Plasma concentration, Mean [2, 18]: 214 ng/mL | Plasma concentration, Mean [2, 19]: 151 ng/mL | Plasma concentration, Mean [2, 20]: 67.1 ng/mL | AUC0-inf, Mean [2, 21]: 5853 ng·h/mL | AUC0-inf, individual dogs [2, 21]: 5350 ng·h/mL and 4540 ng·h/mL and 7490 ng·h/mL and 4980 ng·h/mL and 6220 ng·h/mL and 6540 ng·h/mL | AUC0-last, Mean [2, 21]: 4892 ng·h/mL | AUC0-last, individual dogs [2, 21]: 4650 ng·h/mL and 4040 ng·h/mL and 5850 ng·h/mL and 3960 ng·h/mL and 5390 ng·h/mL and 5460 ng·h/mL | Cmax, Mean [2, 21]: 536 ng/mL | Cmax, individual dogs [2, 21]: 542 ng/mL and 482 ng/mL and 615 ng/mL and 459 ng/mL and 549 ng/mL and 569 ng/mL | MRT0-last, Mean [2, 21]: 7.95 h | MRT0-last, individual dogs [2, 21]: 7.74 h and 7.34 h and 8.38 h and 8.01 h and 7.93 h and 8.32 h | T1/2, Mean [2, 21]: 9.70 h | T1/2, individual dogs [2, 21]: 8.60 h and 8.14 h and 11.97 h and 11.58 h and 8.31 h and 9.57 h | Tmax, individual dogs [2, 21]: 2.00 h | Water content (monohydrate stoichiometry) in gravimetric moisture sorption [4]: approximately 5% | Stability of the form in deionized water ([3]; deionized water): stable | solubility ([3]; deionized water, water, thermodynamic from solid): 4.5 µg/mL
